Data from patent US3966779A, “Thymol derivatives and a process for their preparation” (priority 1974, dated 1976).
Where a name gives a salt, the structure may show the parent alone.

Columns and labels:
[1] = Acute toxicity, 7-day test, method of Litchfield and Wilcoxon; settings: mouse, in vivo, mice
Source text: The toxicity has been determined in a 7-day test with NMRI-mice having an average body weight of 18 to 26 g according to the method of Litchfield and Wilcoxon.

[2] = tested on: nictitating-membrane; experiment: Adrenaline stimulated nictitating-membrane of anesthetized cats (peripheral vasodilation); assay type: in vivo; settings: for change in adrenaline-induced nictitating-membrane contraction: anesthetized cats, 0.01 mg Adrenaline i.v.; for effectiveness compared to Compound A (nictitating-membrane): in words, from Table II
Experimental: a. Adrenaline stimulated nictitating-membrane of anesthetized cats
This experiment is a classical model for the measurements of a peripheral vasodilation. Male and female cats have been anesthetized with pentobarbital. After tracheotomy the contraction of the nictitating-membrane was recorded by means of a strain-gauge. As stimulating agent 0.01 mg Adrenaline has been administered intravenously in intervals of 10 minutes.

[3] = tested on: isolated rabbit ears; experiment: Isolated rabbit ears, Pissensky's method (increased number of drops)
Experimental: b. Experiments on isolated rabbit ears
Male and female rabbits were killed 15 minutes after administration of heparine. Both ears were then cut off at the bases and examined according to Pissensky's method. The overflowing drops were measured by means of an electronic drop counter.

[4] = prior art, cited from earlier work

SMILES | LD50 at 168 h ([1]; iv) [mg/kg] | LD50 at 168 h ([1]; po, i.g.) [mg/kg] | LD50 at 168 h ([1]; sc) [mg/kg] | change in adrenaline-induced nictitating-membrane contraction ([2]; 0.025 mg/kg i.v.) | change in adrenaline-induced nictitating-membrane contraction ([2]; 0.5 mg/kg i.v.) | change in adrenaline-induced nictitating-membrane contraction ([2]; 2 mg/kg i.v.) | Increased number of drops measured in the isolated rabbit ear ([3]; 0,5 mg) | Increased number of drops measured in the isolated rabbit ear ([3]; 1 mg) [%] | Increased number of drops measured in the isolated rabbit ear ([3]; 2 mg) [%] | Increased number of drops measured in the isolated rabbit ear ([3]; 4 mg) | Increased number of drops measured in the isolated rabbit ear ([3]; 0,025 mg) | duration of action [4] | absorbability ([4]; thymoxamine) | toxicity ([4]; thymoxamine) | effectiveness compared to Compound A (nictitating-membrane) [2] | action on the vessels of isolated rabbit ears ([3]; in words, from Table III)
CC(=O)Oc1cc(C(C)C)c(OCCN(C)C)cc1C [Compound A, reference compound] | 48 | 193 | 156 | 0% | 0% | 50% | 15% | 15 | 16 | 16% | 14% | short duration of action | low absorbability | relative toxicity |  | 
CCCCCCCCCC(=O)Oc1cc(C(C)C)c(OCCN(C)C)cc1C [Compound 2, (4-Caprinyloxy-thymyl)-(2'-dimethylaminoathyl)-ether.HCl] | 96 | 1020 | 1550 | ~ 10% | ~ 50% | 80% | 10% | 27 | 68 | ~ 80% | 15% |  |  |  | much more effective than Compound A | 
Cc1cc(OCCN(C)C)c(C(C)C)cc1OC(=O)OC(C)C [Compound 1, (4-Isopropoxycarboxy-thymyl)-(2'-dimethylaminoathyl)-ether.HCl] | 44 | 272 | 210 | ~ 60% | 100% | absolute in- | ~ 20% | 34 | 58 | 139% | ~ 10% |  |  |  | much more effective than Compound A | unexpected action on the vessels of isolated rabbit ears
CCCCCCCC(=O)Oc1cc(C(C)C)c(OCCN(C)C)cc1C [Compound 3, (4-Capryloxy-thymyl)-(2'-dimethylaminoathyl)-ether.HCl] | 25 | 400 |  | ~ 30% | 80% | 100% | 80% |  |  |  | ~ 40% |  |  |  | much more effective than Compound A | 
